Source: publication PMC6271259, “Design, Synthesis and SAR Study of Novel Trisubstituted Pyrimidine Amide Derivatives as CCR4 Antagonists” (Molecules, 2014)

Legend:
CCR4 = target: T1, CCR4 (Homo sapiens, UniProt P51679); assay: CCR4-MDC chemotaxis inhibition assay (48-well Boyden chamber, L1.2 cells transfected with pcDI-CCR4); type: cell-based; conditions: for Chemotaxis inhibition activity against CCR4 (in words, compared with compound 1): CCR4-MDC chemotaxis inhibition assay, compound 1 as positive control; for IC50: MDC 10 ng/mL, L1.2 cells transfected with pcDI-CCR4, compound preincubation 30 min at 37 °C, chamber 6 h, assayed three times, NA = no significant inhibition
T1 construct: expressed in transfected cells; host or cells: L1.2 cells transfected with pcDI-CCR4
T1 sequence (P51679 1-360): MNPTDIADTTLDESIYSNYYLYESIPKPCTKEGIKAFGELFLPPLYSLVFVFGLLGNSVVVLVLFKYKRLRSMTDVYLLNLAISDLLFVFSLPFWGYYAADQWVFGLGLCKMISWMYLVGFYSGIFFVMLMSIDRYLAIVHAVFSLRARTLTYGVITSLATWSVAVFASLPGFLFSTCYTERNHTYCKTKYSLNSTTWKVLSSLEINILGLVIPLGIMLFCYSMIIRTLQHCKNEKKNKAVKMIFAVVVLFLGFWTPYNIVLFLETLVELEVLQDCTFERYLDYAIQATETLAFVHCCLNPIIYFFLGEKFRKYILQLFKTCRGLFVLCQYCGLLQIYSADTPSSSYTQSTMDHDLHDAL
Description: All the newly synthesized compounds were evaluated by a CCR4-MDC chemotaxis inhibition assay. Compound 1 was employed as the positive control.
The quantitative chemotaxis assays were performed using 48-well Boyden chambers (Neutroprobe, Bethesda, MD, USA) with polyvinylpyrrolidone-free polycarbonate filters with 5 μm pores. The MDC (Peprotech, Rocky Hill, NJ, USA) with a final concentration of 10 ng/mL was added into the lower wells. The L1.2 cells that were transfected with pcDI-CCR4 were suspended in assay buffer at 3 × 10^6 cells/mL, incubated with various final concentrations of compounds for 30 min at 37 °C, and then added to the upper wells. The chamber was incubated for 6 h at 37 °C in an atmosphere containing 5% CO2, and then the upper chambers were removed. The chemotaxis buffer in the lower wells was then harvested and mixed with 25 μL of the luciferase-containing reagent, Cell-Titer Glo. The number of L1.2 cells in the lower well medium was measured with a Veritas Microplate Luminometer (Turner BioSystems, Sunnyvale, CA, USA). All samples were assayed three times. The negative control samples and solvent control samples were defined as the cells migrating toward the lower wells in the absence of chemokine, and as the cells migrating toward the MDC-containing lower wells in the absence of compound in the presence of DMSO, respectively. The percentage of inhibition was determined by the following equation: inhibition = (C − A)/(C − B) × 100%, where A indicates the number of cells in the sample, B indicates the number of cells in the negative control sample and C indicates the number of cells in the solvent control sample. The results are expressed as an IC50 value (sample concentration that inhibits 50% chemotaxis) and calculated using Origin 8.0 software.

CCR4-positive cells = system: CCR4-positive cells; design: method as in earlier work; conditions: migration induced by MDC, TARC, and CKLF1; cited from earlier work

## O=C(C1CCCCC1)N1CCN(c2nc(Cl)cc(NCc3ccc(Cl)cc3Cl)n2)CC1 [Compound 6b, 6-Chloro-2-(4-cyclohexylcarbonylpiperazino)-N-(2,4-dichlorobenzyl)pyrimidin-4-amine]
other
  melting point: 175.3 to 177.1 °C
CCR4
  Chemotaxis inhibition activity against CCR4 (in words, compared with compound 1): did not result in significant inhibition activity

## O=C([C@H]1CCCCN1)N1CCN(c2nc(Cl)cc(NCc3ccc(F)cc3F)n2)CC1 [Compound 6e]
other
  melting point: 87.2 to 89 °C
CCR4
  Chemotaxis inhibition activity against CCR4 (in words, compared with compound 1): slightly reduced activity
  IC50: 94 ± 17 nM

## Cc1cc(NCc2ccc(Cl)cc2Cl)nc(N2CCN(C(=O)C3CCN(C)CC3)CC2)n1 [Compound 12c, 2-[4-(N-methylpiperidin-4-yl)carbonylpiperazino]-N-(2,4-dichlorobenzyl)-6-methylpyrimidin-4-amine]
other
  melting point: 146.4 to 148 °C
CCR4
  Chemotaxis inhibition activity against CCR4 (in words, compared with compound 1): relatively weak activity
  IC50: 178 ± 28 nM

## O=C(c1ccccn1)N1CCN(c2nc(Cl)cc(NCc3ccc(Cl)cc3Cl)n2)CC1 [Compound 6a, 6-Chloro-2-[4-(pyridin-2-yl)carbonylpiperazino]-N-(2,4-dichlorobenzyl)pyrimidin-4-amine]
CCR4
  Chemotaxis inhibition activity against CCR4 (in words, compared with compound 1): did not result in significant inhibition activity

## O=C([C@H]1CCCCN1)N1CCN(c2nc(NCc3ccc(Cl)cc3Cl)cc(N3CCOCC3)n2)CC1 [Compound 7b, (R)-2-[4-(Piperidin-2-yl)carbonylpiperazino]-N-(2,4-dichlorobenzyl)-6-morpholino pyrimidin-4-amine]
other
  melting point: 167.8 to 169.5 °C
CCR4
  Chemotaxis inhibition activity against CCR4 (in words, compared with compound 1): relatively poorer activity
  IC50: 395 ± 66 nM

## CN(C)CC(=O)N1CCN(c2nc(Cl)cc(NCc3ccc(Cl)cc3Cl)n2)CC1 [Compound 6c, 6-Chloro-2-[4-(N,N-dimethylaminomethyl)carbonylpiperazino]-N-(2,4-dichlorobenzyl)pyrimidin-4-amine]
other
  melting point: 166.5 to 168.5 °C
CCR4
  IC50: 64 ± 15 nM

## Cc1cc(NCc2ccc(Cl)cc2Cl)nc(N2CCN(C(=O)[C@H]3CCCCN3)CC2)n1 [Compound 12a, (R)-2-[4-(Piperidin-2-yl)carbonylpiperazino]-N-(2,4-dichlorobenzyl)-6-methylpyrimidin-4-amine]
other
  melting point: 82.6 to 84.5 °C
CCR4
  IC50: 77 ± 13 nM

## Cc1cc(NCc2ccc(Cl)cc2Cl)nc(N2CCN(C(=O)[C@H]3CCCO3)CC2)n1 [Compound 12d, (R)-2-[4-(Tetrahydrofuran-2-yl)carbonylpiperazino]-N-(2,4-dichlorobenzyl)-6-methylpyrimidin-4-amine]
other
  melting point: 124.3 to 125.8 °C
CCR4
  Chemotaxis inhibition activity against CCR4 (in words, compared with compound 1): relatively weak activity
  IC50: 235 ± 45 nM

## O=C([C@H]1CCCCN1)N1CCN(c2nc(Cl)cc(NCc3ccc(Cl)cc3)n2)CC1 [Compound 6d, (R)-6-Chloro-2-[4-(piperidin-2-yl)carbonylpiperazino]-N-(4-chlorobenzyl)pyrimidin-4-amine]
CCR4
  Chemotaxis inhibition activity against CCR4 (in words, compared with compound 1): significantly reduced activity
  IC50: 458 ± 51 nM

## Cc1cc(NCc2ccc(Cl)cc2Cl)nc(N2CCN(C(=O)CN(C)C)CC2)n1 [Compound 12b, 2-[4-(N,N-dimethylaminomethyl)carbonylpiperazino]-N-(2,4-dichlorobenzyl)-6-methyl pyrimidin-4-amine]
CCR4
  IC50: 69 ± 15 nM

## O=C([C@H]1CCCCN1)N1CCN(c2nc(NCc3ccc(Cl)cc3Cl)cc(N3CCCCC3)n2)CC1 [Compound 7a, (R)-2-[4-(Piperidin-2-yl)carbonylpiperazino]-N-(2,4-dichlorobenzyl)-6-piperidino pyrimidin-4-amine]
CCR4
  Chemotaxis inhibition activity against CCR4 (in words, compared with compound 1): relatively poorer activity
  IC50: 133 ± 21 nM

## O=C([C@H]1CCCCN1)N1CCN(c2nc(Cl)cc(NCc3ccc(Cl)cc3Cl)n2)CC1 [Compound 1]
CCR4-positive cells
  Inhibition of migration of CCR4-positive cells: inhibit the migration of CCR4-positive cells
CCR4
  IC50: 78 ± 13 nM
